# In publication PMC6646405, “A quantitative, high-throughput method identifies protein–glycan interactions via mass spectrometry” (Communications Biology, 2019):
# Several values for one entry are separate records, joined by “and”; a condition that tells them apart may be missing. Equal entries are not always repeated.
# Tests used:
# [1] = target: Cholera toxin B subunit homopentamer (CTB5) (Vibrio cholerae serotype O1, UniProt P01556); assay type: binding
# [2] = target: Sambucus nigra lectin (SNA) (Sambucus nigra, UniProt Q41358); assay type: binding
# Sequence of Sambucus nigra lectin (SNA) (Q41358 309-570 limits assumed): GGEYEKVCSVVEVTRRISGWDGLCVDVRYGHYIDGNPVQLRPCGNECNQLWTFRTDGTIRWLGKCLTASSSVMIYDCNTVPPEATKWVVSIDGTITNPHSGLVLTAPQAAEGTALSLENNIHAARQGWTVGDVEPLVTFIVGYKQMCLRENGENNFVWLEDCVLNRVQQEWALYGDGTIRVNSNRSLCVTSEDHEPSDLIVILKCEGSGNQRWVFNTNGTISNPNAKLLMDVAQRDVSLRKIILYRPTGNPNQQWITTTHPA
# Sequence of Sambucus nigra lectin (SNA) (Q41358 29-289 partner limits assumed): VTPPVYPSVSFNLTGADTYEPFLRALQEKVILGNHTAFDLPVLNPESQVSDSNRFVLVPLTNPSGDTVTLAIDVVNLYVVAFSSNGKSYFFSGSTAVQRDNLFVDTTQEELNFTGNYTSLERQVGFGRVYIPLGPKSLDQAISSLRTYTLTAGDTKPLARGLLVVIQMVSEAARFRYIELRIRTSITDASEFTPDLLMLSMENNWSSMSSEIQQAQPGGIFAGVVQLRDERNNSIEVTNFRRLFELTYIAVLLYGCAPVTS
# [3] = test system: Maackia amurensis lectins (MAA); experiment: CUPRA library screening and affinity, MAA; assay type: binding; conditions: 50uM MAA; mean of 4 DIi values, FigS3c
# Procedure: Unless otherwise noted, the measurements were performed at 25 °C. […] We identified specific ligands from the depletion index (DIi, Eq. 1) – the change in the fractional abundance (Fi, Eq. 2) ratio of ligand i-bound and free ^UniPproxy ions upon addition of GBP. Prior to calculating Fi, we treated each mass spectrum with the Sliding Window Adducts Removal Method (SWARM)[18] to remove contributions to the abundance of ^UniPproxy -OS^mod complex ions from adducts, formed by the ESI process, of neighbouring complex ions (Supplementary Fig. 2). Shown in Fig. 2a is a summary of the DIi measured by CUPRA screening of the 66-component library against S4 (50 μM). As expected, the average DIi for this negative control is close to 1.0 (0.99 ± 0.03). In contrast, CUPRA screening against the positive controls produced decreases in DIi for one or more of the library components. […] Application of CUPRA to human CD22, part of an important class of Neu5Ac-binding GBPs implicated in both innate and adaptive immunity, correctly identified HMO08 as a ligand (Supplementary Fig. 4a). CUPRA screening of MAA at high concentration (50 μM) identified HMO03 and GA06 as ligands. […]
# Using SWARM-treated mass spectra, DIi was calculated for each ligand from the ratio of the fractional abundances (Fi) of ligand (i)-bound and free ^UniPproxy ions in the presence (+GBP) and absence (-GBP) of GBP, Eqs. […]
# [4] = target: T1, human neuraminidase 3 (NEU3) (Homo sapiens, UniProt Q9UQ49); experiment: Time-resolved CUPRA enzyme kinetics, NEU3; assay type: biochemical
# T1 construct: made in house
# T1 sequence (Q9UQ49 1-428): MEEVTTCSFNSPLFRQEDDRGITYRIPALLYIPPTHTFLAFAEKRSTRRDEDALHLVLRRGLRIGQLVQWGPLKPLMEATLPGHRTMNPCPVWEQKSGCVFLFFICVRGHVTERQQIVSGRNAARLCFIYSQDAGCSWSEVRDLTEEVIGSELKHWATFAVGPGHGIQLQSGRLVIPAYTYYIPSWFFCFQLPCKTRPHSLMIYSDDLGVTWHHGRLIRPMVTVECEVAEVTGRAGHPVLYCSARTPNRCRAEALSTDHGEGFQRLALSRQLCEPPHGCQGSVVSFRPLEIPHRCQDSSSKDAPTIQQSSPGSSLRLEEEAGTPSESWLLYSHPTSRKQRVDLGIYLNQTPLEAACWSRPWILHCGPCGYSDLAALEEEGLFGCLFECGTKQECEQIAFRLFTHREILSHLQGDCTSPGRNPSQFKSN
# Procedure: To apply CUPRA in this capacity, two or more substrates of interest are introduced, as their corresponding OS^mod, to a solution containing the desired CAZyme. Changes in substrate concentrations, as well as those of the corresponding enzyme products, are determined from the relative abundances of OS^mod-bound ^UniPproxy measured by time-resolved ESI-MS. Because of the manner in which the substrate and product concentrations are measured, the assay is insensitive to differences in their ESI-MS response factors and, consequently, independent of the nature of the chemical modification catalyzed by the enzyme. As a result, time-resolved CUPRA eliminates the need for calibration curves or internal standards, which are generally required with ESI-MS-based enzyme kinetics assays.
# Two glycosyl hydrolases, human neuraminidase 2 (NEU2) and 3 (NEU3), which preferentially cleave α2-3-linked Neu5Ac residues, were used to illustrate the ease with which time-resolved CUPRA can establish substrate specificities. We incubated libraries of the Neu5Ac-containing OS^mod with NEU2 (Fig. 2d) or NEU3 (Fig. 2e) and monitored their conversion to the corresponding desialylated OS^mod products at pH 7 and 25 °C. […] All OS^mod containing terminal α2-3-linked Neu5Ac were substrates of NEU3, with initial rates that are 10–50% that of HMO03. […]
# [5] = target: human carbonic anhydrase type 1 (Homo sapiens, UniProt P00915); experiment: Direct ESI-MS affinity of OSmod for the universal proxy protein (UniPproxy); conditions: read-out: Kd of OSmod for UniPproxy; direct ESI-MS, 200 mM aqueous ammonium acetate, pH 7, 25 °C
# Sequence of human carbonic anhydrase type 1 (P00915 whole entry): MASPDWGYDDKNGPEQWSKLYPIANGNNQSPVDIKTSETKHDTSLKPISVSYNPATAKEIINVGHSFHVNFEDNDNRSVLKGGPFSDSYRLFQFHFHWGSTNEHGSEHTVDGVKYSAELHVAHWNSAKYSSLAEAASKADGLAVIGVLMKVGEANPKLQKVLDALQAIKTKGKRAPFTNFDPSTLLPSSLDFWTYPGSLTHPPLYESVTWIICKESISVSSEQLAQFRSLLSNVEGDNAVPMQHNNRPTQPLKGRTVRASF
# Sequence of Cholera toxin B subunit homopentamer (CTB5) (P01556 22-124 limits assumed): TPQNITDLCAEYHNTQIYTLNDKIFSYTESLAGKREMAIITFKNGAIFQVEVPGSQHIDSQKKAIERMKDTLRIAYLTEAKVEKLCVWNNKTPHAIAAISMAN
structure (smiles),measurement,setting,value
"CC(=O)N[C@H]1[C@H](O[C@@H]2[C@H](O[C@]3(C(=O)O)C[C@H](O)[C@@H](NC(C)=O)[C@H]([C@H](O)[C@@H](CO)O[C@]4(C(=O)O)C[C@H](O)[C@@H](NC(C)=O)[C@H]([C@H](O)[C@H](O)CO)O4)O3)[C@@H](O)[C@H](O[C@H]3[C@H](O)[C@@H](O)[C@H](N(CCOCCOCCNC(=O)[C@H](Cc4ccccc4)NC(=O)[C@H](Cc4ccccc4)NC(=O)CCCC(=O)NCCc4ccc(S(N)(=O)=O)cc4)C(C)=O)O[C@@H]3CO)O[C@@H]2CO)O[C@H](CO)[C@H](O)[C@@H]1O [GA10, GalNAcβ1-4(Neu5Acα2-8 Neu5Acα2-3)Galβ1-4Glc-CL]",DIi(2uM CTB5),[1],1.017 and 1.023 and 1.026 and 1.032
same,DIi(10uM CTB5),[1],1.049 and 1.055 and 1.045 and 1.05
same,DIi(10uM CTB5 at 0C),[1],1.029 and 1.025 and 1.026 and 1.021
same,average DI,[1],1.025 and 1.0497
same,DIi(5uM SNA),[2],1 and 0.9993 and 0.9948 and 0.9939
same,average DI,[2],0.9971
same,average DI,[3],1.024
same,substrate specificity of NEU3,"[4]; pH 7, 25 °C",substrates for NEU3
same,Relative activity NEU3,"[4]; time-resolved CUPRA, 200 mM aqueous ammonium acetate pH 7, 25 °C, relative to HMO03",0.292
same,Kd,[5],14.1 ± 1.9 µM
